# Peptide text beside a SMILES is read from it. * marks the point of attachment. Dicyclohexylacetyl = O=C(C(C1CCCCC1)C1CCCCC1)*; Butanoyl(2,2-Me2) = CCC(C)(C)C(=O)*; Octanoyl(6-Me) = CCC(C)CCCCC(=O)*; Octanoyl = CCCCCCCC(=O)*; X1 = CCCCC(CC)C(=O)*
# System: C. neoformans ATCC 32045
# Type: cell-based
# Details: ATCC 32045, 72 h
# Method: C. neoformans ATCC 32045 cultures were maintained on yeast medium (YM; Difco Laboratories, Detroit, Mich.) agar plates at 4° C. Prior to the assay, the cultures were grown on agar plates and incubated for 72 hrs at 26° C. Two colonies of these newly grown fungal cultures were then inoculated in 5 ml of 2×YM broth, vortexed, and diluted 10-fold in 2×YM broth, for an approximate final assay concentration of 1×105 to 5×10^5 CFU/ml. In 96-well tissue culture plates, fungal suspensions in 2×YM broth were added to the peptides dispensed at concentrations ranging from 1 mg/ml to 1 μg/ml derived from serial twofold dilutions in sterile water. The plates were then incubated for 72 hrs at 26° C. The relative percent growth of the fungi found for each test sample was determined by the optical density at 620 nm (OD620) by using a Titertek Multiskan Plus apparatus. […] The IC50 were calculated by using a sigmoidal curve-fitting software program (Graphpad Prism; ISI Software, San Diego, Calif.).
average IC50,average MIC,Structure (SMILES)
6 µg/mL,16 µg/mL,"CCC(C)CCCCC(=O)N[C@@H](Cc1ccccc1)C(=O)N[C@@H](Cc1c[nH]c2ccccc12)C(=O)N[C@@H](CCC(N)=O)C(=O)N[C@@H](CCCNC(=N)N)C(=O)N[C@@H](CC(N)=O)C(=O)N[C@H](C(=O)N[C@@H](CCCNC(=N)N)C(=O)N[C@@H](CCCCN)C(=O)N[C@@H](Cc1c[nH]c2ccccc12)C(=O)N[C@@H](CCCNC(=N)N)C(N)=O)[C@@H](C)CC (stereo partly drawn) [VS1-43, 6-methyloctanoyl FWQRNIRKWR-NH2] ({Octanoyl(6-Me)}-FWQRNIRKWR-NH2)"
8 µg/mL,16 µg/mL,"CC[C@H](C)[C@H](NC(=O)[C@H](CCCNC(=N)N)NC(=O)[C@H](CCCCN)NC(=O)[C@H](Cc1c[nH]c2ccccc12)NC(=O)[C@H](CCCNC(=N)N)NC(=O)C(C)(C)CC)C(=O)N[C@@H](CC(N)=O)C(=O)N[C@@H](CCCNC(=N)N)C(=O)N[C@@H](CCC(N)=O)C(=O)N[C@@H](Cc1c[nH]c2ccccc12)C(=O)N[C@@H](Cc1ccccc1)C(N)=O [VS1-47, 2,2-dimethylbutanoyl RWKRINRQWF-NH2] ({Butanoyl(2,2-Me2)}-RWKRINRQWF-NH2)"
13 µg/mL,32 µg/mL,"CC[C@H](C)[C@H](NC(=O)[C@H](CCCNC(=N)N)NC(=O)[C@H](CCCCN)NC(=O)[C@H](Cc1c[nH]c2ccccc12)NC(=O)[C@@H](N)CCCNC(=N)N)C(=O)N[C@@H](CC(N)=O)C(=O)N[C@@H](CCCNC(=N)N)C(=O)N[C@@H](CCC(N)=O)C(=O)N[C@@H](Cc1c[nH]c2ccccc12)C(=O)N[C@@H](Cc1ccccc1)C(N)=O [VS1-16, RWKRINRQWF-NH2] (H-RWKRINRQWF-NH2; N-terminus assumed)"
2 µg/mL,8 µg/mL,"CCCCCCCC(=O)N[C@@H](Cc1ccccc1)C(=O)N[C@@H](Cc1c[nH]c2ccccc12)C(=O)N[C@@H](CCC(N)=O)C(=O)N[C@@H](CCCNC(=N)N)C(=O)N[C@@H](CC(N)=O)C(=O)N[C@H](C(=O)N[C@@H](CCCNC(=N)N)C(=O)N[C@@H](CCCCN)C(=O)N[C@@H](Cc1c[nH]c2ccccc12)C(=O)N[C@@H](CCCNC(=N)N)C(N)=O)[C@@H](C)CC [VS1-40, octanoyl FWQRNIRKWR-NH2] (Octanoyl-FWQRNIRKWR-NH2)"
5 µg/mL,32 µg/mL,"CC[C@H](C)[C@H](NC(=O)[C@H](CCCNC(=N)N)NC(=O)[C@H](CCCNC(=N)N)NC(=O)[C@H](CCC(N)=O)NC(=O)[C@H](Cc1c[nH]c2ccccc12)NC(=O)[C@@H](N)Cc1ccccc1)C(=O)N[C@@H](CCCNC(=N)N)C(=O)N[C@@H](CCCCN)C(=O)N[C@@H](Cc1c[nH]c2ccccc12)C(=O)N[C@@H](CCCNC(=N)N)C(N)=O [VS1-17, FWQRRIRKWR-NH2] (H-FWQRRIRKWR-NH2; N-terminus assumed)"
4 µg/mL,8 µg/mL,"CCCCC(CC)C(=O)N[C@@H](Cc1ccccc1)C(=O)N[C@@H](Cc1c[nH]c2ccccc12)C(=O)N[C@@H](CCC(N)=O)C(=O)N[C@@H](CCCNC(=N)N)C(=O)N[C@@H](CC(N)=O)C(=O)N[C@H](C(=O)N[C@@H](CCCNC(=N)N)C(=O)N[C@@H](CCCCN)C(=O)N[C@@H](Cc1c[nH]c2ccccc12)C(=O)N[C@@H](CCCNC(=N)N)C(N)=O)[C@@H](C)CC (stereo partly drawn) [VS1-41, 2-ethylhexanoyl FWQRNIRKWR-NH2] (X1-FWQRNIRKWR-NH2)"

# Second part, the compound before the results:
Structure (SMILES),average IC50,average MIC
"CC[C@H](C)[C@H](NC(=O)[C@H](CCCNC(=N)N)NC(=O)[C@@H](NC(=O)[C@H](CCCNC(=N)N)NC(=O)[C@@H](N)CCCNC(=N)N)[C@@H](C)CC)C(=O)N[C@@H](CC(N)=O)C(=O)N[C@@H](CCCNC(=N)N)C(=O)N[C@@H](CCC(N)=O)C(=O)N[C@@H](Cc1c[nH]c2ccccc12)C(=O)N[C@@H](Cc1ccccc1)C(N)=O [VS1-14, RRIRINRQWF-NH2] (H-RRIRINRQWF-NH2; N-terminus assumed)",12 µg/mL,32 µg/mL
"CCC(C)(C)C(=O)N[C@@H](Cc1ccccc1)C(=O)N[C@@H](Cc1c[nH]c2ccccc12)C(=O)N[C@@H](CCCNC(=N)N)C(=O)N[C@@H](CCCNC(=N)N)C(=O)N[C@@H](Cc1ccccc1)C(=O)N[C@@H](Cc1c[nH]c2ccccc12)C(=O)N[C@@H](CCCNC(=N)N)C(=O)N[C@@H](CCCNC(=N)N)C(N)=O [VS1-62, 2,2-dimethylbutanoyl FWRRFWRR-NH2] ({Butanoyl(2,2-Me2)}-FWRRFWRR-NH2)",4 µg/mL,16 µg/mL
"CCC(C)CCCCC(=O)N[C@@H](Cc1ccccc1)C(=O)N[C@@H](Cc1c[nH]c2ccccc12)C(=O)N[C@@H](CCCNC(=N)N)C(=O)N[C@H](C(=O)N[C@@H](CCCNC(=N)N)C(=O)N[C@H](C(=O)N[C@@H](CCCNC(=N)N)C(=O)N[C@@H](CCCNC(=N)N)C(N)=O)[C@@H](C)CC)[C@@H](C)CC (stereo partly drawn) [VS1-58, 6-methyloctanoyl FWRIRIRR-NH2] ({Octanoyl(6-Me)}-FWRIRIRR-NH2)",6 µg/mL,16 µg/mL
"CCC(C)CCCCC(=O)N[C@@H](Cc1ccccc1)C(=O)N[C@@H](Cc1c[nH]c2ccccc12)C(=O)N[C@@H](CCCNC(=N)N)C(=O)N[C@@H](CCCNC(=N)N)C(=O)N[C@@H](Cc1ccccc1)C(=O)N[C@@H](Cc1c[nH]c2ccccc12)C(=O)N[C@@H](CCCNC(=N)N)C(=O)N[C@@H](CCCNC(=N)N)C(N)=O (stereo partly drawn) [VS1-63, 6-methyloctanoyl FWRRFWRR-NH2] ({Octanoyl(6-Me)}-FWRRFWRR-NH2)",11 µg/mL,62 µg/mL
"CCCCC(CC)C(=O)N[C@@H](Cc1ccccc1)C(=O)N[C@@H](Cc1c[nH]c2ccccc12)C(=O)N[C@@H](CCCNC(=N)N)C(=O)N[C@H](C(=O)N[C@@H](CCCNC(=N)N)C(=O)N[C@H](C(=O)N[C@@H](CCCNC(=N)N)C(=O)N[C@@H](CCCNC(=N)N)C(N)=O)[C@@H](C)CC)[C@@H](C)CC (stereo partly drawn) [VS1-56, 2-ethylhexanoyl FWRIRIRR-NH2] (X1-FWRIRIRR-NH2)",3 µg/mL,16 µg/mL
"CC[C@H](C)[C@H](NC(=O)[C@H](CC(N)=O)NC(=O)[C@H](CCCNC(=N)N)NC(=O)[C@H](CCC(N)=O)NC(=O)[C@H](Cc1c[nH]c2ccccc12)NC(=O)[C@H](Cc1ccccc1)NC(=O)C(C1CCCCC1)C1CCCCC1)C(=O)N[C@@H](CCCNC(=N)N)C(=O)N[C@@H](CCCCN)C(=O)N[C@@H](Cc1c[nH]c2ccccc12)C(=O)N[C@@H](CCCNC(=N)N)C(N)=O [VS1-44, dicyclohexylacetyl FWQRNIRKWR-NH2] (Dicyclohexylacetyl-FWQRNIRKWR-NH2)",4 µg/mL,16 µg/mL
"CC[C@H](C)[C@H](NC(=O)[C@H](CCCNC(=N)N)NC(=O)[C@@H](NC(=O)[C@H](CC(N)=O)NC(=O)[C@H](CCCNC(=N)N)NC(=O)[C@H](CCC(N)=O)NC(=O)[C@H](Cc1c[nH]c2ccccc12)NC(=O)[C@@H](N)Cc1ccccc1)[C@@H](C)CC)C(=O)N[C@@H](CCCNC(=N)N)C(=O)N[C@@H](CCCNC(=N)N)C(N)=O [VS1-13, FWQRNIRIRR-NH2] (H-FWQRNIRIRR-NH2; N-terminus assumed)",8 µg/mL,32 µg/mL
"N=C(N)NCCC[C@H](NC(=O)[C@H](CCCNC(=N)N)NC(=O)[C@H](Cc1c[nH]c2ccccc12)NC(=O)[C@H](Cc1ccccc1)NC(=O)[C@H](Cc1c[nH]c2ccccc12)NC(=O)[C@H](CCCNC(=N)N)NC(=O)[C@@H](N)CCCNC(=N)N)C(=O)O [VS1-39, RRWFWRR-OH] (H-RRWFWRR-OH; N-terminus assumed)",6 µg/mL,32 µg/mL
"CC[C@H](C)[C@H](NC(=O)[C@H](CCCNC(=N)N)NC(=O)[C@@H](NC(=O)[C@H](CCCNC(=N)N)NC(=O)[C@H](Cc1c[nH]c2ccccc12)NC(=O)[C@H](Cc1ccccc1)NC(=O)[C@@H]1CCCN1)[C@@H](C)CC)C(=O)N[C@@H](CCCNC(=N)N)C(=O)N[C@@H](CCCNC(=N)N)C(=O)N[C@@H](CC(=O)O)C(N)=O [VS1-23, PFWRIRIRRD-NH2] (H-PFWRIRIRRD-NH2; N-terminus assumed)",4 µg/mL,8 µg/mL
"CC[C@H](C)[C@H](NC(=O)[C@H](CCCNC(=N)N)NC(=O)[C@@H](NC(=O)[C@H](CCCNC(=N)N)NC(=O)[C@H](Cc1c[nH]c2ccccc12)NC(=O)[C@H](Cc1ccccc1)NC(=O)[C@@H]1CCCN1C(=O)C(C1CCCCC1)C1CCCCC1)[C@@H](C)CC)C(=O)N[C@@H](CCCNC(=N)N)C(=O)N[C@@H](CCCNC(=N)N)C(N)=O [VS1-54, dicyclohexylacetyl PFWRIRIRR-NH2] (Dicyclohexylacetyl-PFWRIRIRR-NH2)",3 µg/mL,8 µg/mL
"CC[C@H](C)[C@H](NC(=O)[C@H](CCCNC(=N)N)NC(=O)[C@H](CCCCN)NC(=O)[C@H](Cc1c[nH]c2ccccc12)NC(=O)[C@H](CCCNC(=N)N)NC(=O)C(C1CCCCC1)C1CCCCC1)C(=O)N[C@@H](CC(N)=O)C(=O)N[C@@H](CCCNC(=N)N)C(=O)N[C@@H](CCC(N)=O)C(=O)N[C@@H](Cc1c[nH]c2ccccc12)C(=O)N[C@@H](Cc1ccccc1)C(N)=O [VS1-49, dicyclohexylacetyl RWKRINRQWF-NH2] (Dicyclohexylacetyl-RWKRINRQWF-NH2)",2 µg/mL,4 µg/mL
"CC[C@H](C)[C@H](NC(=O)[C@H](CCCNC(=N)N)NC(=O)[C@@H](NC(=O)[C@H](CCCNC(=N)N)NC(=O)[C@H](CCCNC(=N)N)NC(=O)[C@H](CCCNC(=N)N)NC(=O)[C@H](Cc1c[nH]c2ccccc12)NC(=O)[C@H](Cc1ccccc1)NC(=O)[C@@H]1CCCN1)[C@@H](C)CC)C(=O)N[C@@H](CCCNC(=N)N)C(=O)N[C@@H](CCCNC(=N)N)C(N)=O [VS1-37, PFWRRRIRIRR-NH2] (H-PFWRRRIRIRR-NH2; N-terminus assumed)",9 µg/mL,32 µg/mL
